# Structures can show the parent of a compound that is named as a salt.
# What was measured:
# [1] = tested on: D2-dopamine sites (bovine pituitary); assay: Displacement of [3H] spiroperidol, bovine pituitary (D2) binding; details: at 10^-5 M, 10 µM
# Source text: (§1) As an example of the D1 -dopamine specificity of the compounds of this invention, a species of formula I, 6,7-dihydroxy-2,3,4,8,9-9a-hexahydro-4-phenyl-1H-indeno[1,7-cd]azepine hydrobromide, was submitted to standard binding tests for D1 and D2 -dopamine sites, see K. Flaim, loc. cit. for testing protocols.
# [^3 H] spiroperidol bovine
# [2] = molecular target: T1, D1-dopamine sites (rat caudate) (Rattus norvegicus, UniProt P18901); assay: Displacement of [3H] fenoldopam, rat caudate (D1) binding; details: in words
# T1 construct: rat caudate; from tissue; host or cells: rat caudate
# T1 sequence (P18901 whole entry): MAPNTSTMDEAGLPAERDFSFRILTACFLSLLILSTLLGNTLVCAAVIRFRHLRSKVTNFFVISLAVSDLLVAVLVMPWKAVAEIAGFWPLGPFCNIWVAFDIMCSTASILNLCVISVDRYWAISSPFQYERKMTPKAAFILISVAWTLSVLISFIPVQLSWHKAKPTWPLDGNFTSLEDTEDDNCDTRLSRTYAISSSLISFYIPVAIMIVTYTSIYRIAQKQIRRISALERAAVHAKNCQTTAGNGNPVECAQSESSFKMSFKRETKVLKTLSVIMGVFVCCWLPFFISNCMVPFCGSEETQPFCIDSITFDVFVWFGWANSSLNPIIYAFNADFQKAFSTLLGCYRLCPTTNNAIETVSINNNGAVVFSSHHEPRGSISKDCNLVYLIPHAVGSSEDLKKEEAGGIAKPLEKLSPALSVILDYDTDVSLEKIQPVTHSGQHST
# Source text: as §1
# [^3 H] fenoldopam rat caudate
# [3] = in words; peripheral dopaminergic agent; cited from earlier work
# [4] = tested on: dopamine D1 and D2 receptor; details: in words; U.S. Pat. No. 4,197,297; cited from earlier work
Compound,Displacement of [3H] spiroperidol bovine pituitary (D2) [1] [%],potency and selectivity for D1 dopamine sites [2],described activity [3],agonist activity [4]
"Oc1cc2c3c(c1O)CC[C@H]3CNC[C@H]2c1ccccc1 (stereo in doubt) [cis, cis-6,7-dihydroxy-2,3,4,8,9,9a-hexahydro-4-phenyl-1H-indeno[1-7-cd]azepinehydrobromide]",14,very potent and selective,,
"Br.Oc1cc2c3c(c1O)CC[C@@H]3CNC[C@@H]2c1ccccc1 (stereo in doubt) [trans, trans-6,7-dihydroxy-2,3,4,8,9,9a-hexahydro-4-phenyl-1H-indeno[1,7-cd]azepine hydrobromide]",0,,,
Oc1ccc(C2CNCCc3c2cc(O)c(O)c3Cl)cc1 (centres unmarked) [fenoldopam],,,"renal dilating, anti-hypertensive, anti-shock and anti-congestive heart failure activity",D1 and some D2 agonist activity

# Source: patent US4769368A, “2,3,4,8,9,9A-Hexahydro-4-aryl-1H-indeno(1,7-CD)azepines” (SmithKline Beckman Corporation, priority 1986, dated 1988)
